Values joined by “and” are separate entries in the source; they are usually repeats but may differ in a detail not shown here. Equal entries are not always repeated. Toxic doses and inconclusive results are not listed.
System: L1210 leukemia ip in BDF1 mice, survival T/C
Experiment: NCI In Vivo Anticancer Drug Screen. Data for tumor model L1210 Leukemia (intraperitoneal) in B6D2F1 (BDF1) mice
Conditions: higher = longer survival
Method in brief: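 Transplanted-tumor mice were given test agent; controls received vehicle only. Survival readings from the two groups were divided (treated over control).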

[1] = endpoint: mean survival time, dose: 10.0 mg/kg/injection, schedule: Q01DX009 (ip), vehicle: saline
[2] = endpoint: mean survival time, dose: 100.0 mg/kg/injection, schedule: Q04DX002 (ip), vehicle: Klucel (hydroxypropylcellulose) (HPC)
[3] = endpoint: mean survival time, dose: 200.0 mg/kg/injection, schedule: Q04DX002 (ip), vehicle: Klucel (hydroxypropylcellulose) (HPC)
[4] = endpoint: mean survival time, dose: 100.0 mg/kg/injection, schedule: Q04DX003 (ip), vehicle: Klucel (hydroxypropylcellulose) (HPC)
[5] = endpoint: mean survival time, dose: 200.0 mg/kg/injection, schedule: Q04DX003 (ip), vehicle: Klucel (hydroxypropylcellulose) (HPC)
[6] = endpoint: mean survival time, dose: 400.0 mg/kg/injection, schedule: Q04DX003 (ip), vehicle: Klucel (hydroxypropylcellulose) (HPC)
[7] = endpoint: mean survival time, dose: 100.0 mg/kg/injection, schedule: Q01DX001 (ip), vehicle: saline with Tween-80
[8] = endpoint: mean survival time, dose: 200.0 mg/kg/injection, schedule: Q01DX001 (ip), vehicle: saline with Tween-80
[9] = endpoint: mean survival time, dose: 100.0 mg/kg/injection, schedule: Q01DX001 (ip), vehicle: Klucel (hydroxypropylcellulose) (HPC)
[10] = endpoint: mean survival time, dose: 200.0 mg/kg/injection, schedule: Q01DX001 (ip), vehicle: Klucel (hydroxypropylcellulose) (HPC)
[11] = endpoint: mean survival time, dose: 400.0 mg/kg/injection, schedule: Q01DX001 (ip), vehicle: Klucel (hydroxypropylcellulose) (HPC)
[12] = endpoint: mean survival time, dose: 100.0 mg/kg/injection, schedule: Q01DX009 (ip), vehicle: saline with Tween-80
[13] = endpoint: mean survival time, dose: 200.0 mg/kg/injection, schedule: Q01DX009 (ip), vehicle: saline with Tween-80
[14] = endpoint: mean survival time, dose: 400.0 mg/kg/injection, schedule: Q01DX009 (ip), vehicle: saline with Tween-80
[15] = endpoint: mean survival time, dose: 100.0 mg/kg/injection, schedule: Q01DX009 (ip), vehicle: Klucel (hydroxypropylcellulose) (HPC)
[16] = endpoint: mean survival time, dose: 200.0 mg/kg/injection, schedule: Q01DX009 (ip), vehicle: Klucel (hydroxypropylcellulose) (HPC)
[17] = endpoint: mean survival time, dose: 400.0 mg/kg/injection, schedule: Q01DX009 (ip), vehicle: Klucel (hydroxypropylcellulose) (HPC)
[18] = endpoint: mean survival time, dose: 100.0 mg/kg/injection, schedule: Q04DX003 (ip), vehicle: saline with Tween-80
[19] = endpoint: mean survival time, dose: 200.0 mg/kg/injection, schedule: Q04DX003 (ip), vehicle: saline with Tween-80
[20] = endpoint: mean survival time, dose: 400.0 mg/kg/injection, schedule: Q04DX003 (ip), vehicle: saline with Tween-80
[21] = endpoint: mean survival time, dose: 100.0 mg/kg/injection, schedule: Q01DX001 (ip), vehicle: saline
[22] = endpoint: mean survival time, dose: 200.0 mg/kg/injection, schedule: Q01DX001 (ip), vehicle: saline
[23] = endpoint: mean survival time, dose: 400.0 mg/kg/injection, schedule: Q01DX001 (ip), vehicle: saline
[24] = endpoint: mean survival time, dose: 100.0 mg/kg/injection, schedule: Q01DX001 (ip), vehicle: carboxymethylcellulose (CMC)
[25] = endpoint: mean survival time, dose: 200.0 mg/kg/injection, schedule: Q01DX001 (ip), vehicle: carboxymethylcellulose (CMC)
[26] = endpoint: mean survival time, dose: 400.0 mg/kg/injection, schedule: Q01DX001 (ip), vehicle: carboxymethylcellulose (CMC)

COc1cc2c[n+](C)c3c4cc5c(cc4ccc3c2cc1OC)OCO5
T/C (endpoint: mean survival time, dose: 1.0 mg/kg/injection, schedule: Q01DX009 (ip), vehicle: saline): 109 % of control and 120 % of control
T/C [1]: 118 % of control
T/C (endpoint: mean survival time, dose: 40.0 mg/kg/injection, schedule: Q01DX009 (ip), vehicle: saline): 121 % of control
T/C (endpoint: mean survival time, dose: 64.0 mg/kg/injection, schedule: Q01DX009 (ip), vehicle: saline): 117 % of control and 121 % of control
T/C (endpoint: mean survival time, dose: 80.0 mg/kg/injection, schedule: Q04DX003 (ip), vehicle: saline): 150 % of control
T/C [2]: 111 % of control
T/C [3]: 111 % of control
T/C (endpoint: mean survival time, dose: 400.0 mg/kg/injection, schedule: Q04DX002 (ip), vehicle: Klucel (hydroxypropylcellulose) (HPC)): 107 % of control
T/C (endpoint: median survival time, dose: 1.0 mg/kg/injection, schedule: Q03HX024 (ip), vehicle: saline): 114 % of control
T/C (endpoint: median survival time, dose: 2.0 mg/kg/injection, schedule: Q03HX016 (ip), vehicle: saline): 124 % of control
T/C (endpoint: median survival time, dose: 4.0 mg/kg/injection, schedule: Q03HX008 (ip), vehicle: saline): 121 % of control
T/C (endpoint: median survival time, dose: 4.0 mg/kg/injection, schedule: Q03HX016 (ip), vehicle: saline): 119 % of control
T/C (endpoint: median survival time, dose: 8.0 mg/kg/injection, schedule: Q04DX003 (ip), vehicle: saline): 103 % of control
T/C (endpoint: median survival time, dose: 8.0 mg/kg/injection, schedule: Q08DX002 (ip), vehicle: saline): 105 % of control
T/C (endpoint: median survival time, dose: 16.0 mg/kg/injection, schedule: Q01DX009 (oral), vehicle: saline): 105 % of control
T/C (endpoint: median survival time, dose: 16.0 mg/kg/injection, schedule: Q03HX008 (ip), vehicle: saline): 121 % of control
T/C (endpoint: median survival time, dose: 16.0 mg/kg/injection, schedule: Q04DX003 (ip), vehicle: saline): 101 % of control
T/C (endpoint: median survival time, dose: 16.0 mg/kg/injection, schedule: Q08DX002 (ip), vehicle: saline): 103 % of control
T/C (endpoint: median survival time, dose: 32.0 mg/kg/injection, schedule: Q01DX001 (ip), vehicle: saline): 121 % of control
T/C (endpoint: median survival time, dose: 32.0 mg/kg/injection, schedule: Q01DX009 (oral), vehicle: saline): 109 % of control
T/C (endpoint: median survival time, dose: 32.0 mg/kg/injection, schedule: Q04DX003 (ip), vehicle: saline): 101 % of control
T/C (endpoint: median survival time, dose: 64.0 mg/kg/injection, schedule: Q01DX001 (ip), vehicle: saline): 112 % of control
T/C (endpoint: median survival time, dose: 64.0 mg/kg/injection, schedule: Q01DX009 (ip), vehicle: saline): 112 % of control
T/C (endpoint: median survival time, dose: 64.0 mg/kg/injection, schedule: Q01DX009 (oral), vehicle: saline): 103 % of control
T/C (endpoint: median survival time, dose: 64.0 mg/kg/injection, schedule: Q04DX003 (ip), vehicle: saline): 101 % of control
T/C (endpoint: median survival time, dose: 128.0 mg/kg/injection, schedule: Q01DX001 (ip), vehicle: saline): 121 % of control
T/C (endpoint: median survival time, dose: 128.0 mg/kg/injection, schedule: Q01DX009 (oral), vehicle: saline): 102 % of control
T/C (endpoint: median survival time, dose: 128.0 mg/kg/injection, schedule: Q04DX003 (ip), vehicle: saline): 87 % of control
T/C (endpoint: median survival time, dose: 128.0 mg/kg/injection, schedule: Q08DX002 (ip), vehicle: saline): 101 % of control
T/C (endpoint: median survival time, dose: 256.0 mg/kg/injection, schedule: Q01DX009 (oral), vehicle: saline): 100 % of control
T/C (endpoint: median survival time, dose: 512.0 mg/kg/injection, schedule: Q01DX009 (oral), vehicle: saline): 105 % of control

CCCCP(=S)(CCCC)N(CC)CC
T/C [4]: 101 % of control
T/C [5]: 104 % of control
T/C [6]: 93 % of control

CC1CCCC(C)N1N (stereo unspecified)
T/C [7]: 97 % of control
T/C [8]: 93 % of control
T/C (endpoint: mean survival time, dose: 400.0 mg/kg/injection, schedule: Q01DX001 (ip), vehicle: saline with Tween-80): 95 % of control

CC1C=CC=CC=C1
T/C [9]: 98 % of control
T/C [4]: 102 % of control
T/C [10]: 90 % of control
T/C [5]: 93 % of control
T/C [11]: 92 % of control
T/C [6]: 86 % of control

c1ccc2sccc2c1
T/C [12]: 110 % of control
T/C [13]: 111 % of control
T/C [14]: 116 % of control

c1ccc(C2SCCCS2)cc1
T/C [15]: 96 % of control
T/C [16]: 97 % of control
T/C [17]: 94 % of control

CCOC(=O)c1cccnc1NC(=O)c1ccccc1
T/C (endpoint: mean survival time, dose: 50.0 mg/kg/injection, schedule: Q04DX002 (ip), vehicle: Klucel (hydroxypropylcellulose) (HPC)): 97 % of control
T/C [2]: 97 % of control and 103 % of control
T/C [3]: 100 % of control and 101 % of control
T/C (endpoint: mean survival time, dose: 800.0 mg/kg/injection, schedule: Q04DX002 (ip), vehicle: Klucel (hydroxypropylcellulose) (HPC)): 105 % of control

COC(OC)c1nc(NC(C)=O)[nH]c(=O)c1Cc1ccc(N)cc1
T/C [12]: 96 % of control
T/C [18]: 94 % of control
T/C [13]: 89 % of control
T/C [19]: 96 % of control
T/C [14]: 97 % of control
T/C [20]: 110 % of control

COc1cc(C)c2c(c1OC)C(=O)CC2
T/C [21]: 94 % of control
T/C [22]: 105 % of control
T/C [23]: 88 % of control

C=C(Cl)C(=O)OCC
T/C (endpoint: mean survival time, dose: 5.0 mg/kg/injection, schedule: Q01DX009 (ip), vehicle: saline): 103 % of control
T/C (endpoint: mean survival time, dose: 5.0 mg/kg/injection, schedule: Q04DX003 (ip), vehicle: saline with Tween-80): 93 % of control
T/C [1]: 98 % of control
T/C (endpoint: mean survival time, dose: 10.0 mg/kg/injection, schedule: Q04DX003 (ip), vehicle: saline with Tween-80): 95 % of control
T/C (endpoint: mean survival time, dose: 20.0 mg/kg/injection, schedule: Q01DX009 (ip), vehicle: saline): 104 % of control
T/C (endpoint: mean survival time, dose: 20.0 mg/kg/injection, schedule: Q04DX003 (ip), vehicle: saline with Tween-80): 95 % of control

C(=N\N1CCN(/N=C/c2ccc3ccccc3n2)CC1)/c1ccc2ccccc2n1
T/C [24]: 89 % of control
T/C [25]: 86 % of control
T/C [26]: 94 % of control

O=C(Nc1ccc(CCO)cc1)Nc1cccc(F)c1
T/C [15]: 103 % of control
T/C [16]: 102 % of control
T/C [17]: 88 % of control

CCCCC(=O)Nc1cccc(OC(=O)NC)c1
T/C [18]: 92 % of control
T/C [19]: 95 % of control
T/C [20]: 87 % of control

O=c1[nH]c2cc(Cl)ccc2c2ccccc12
T/C [24]: 99 % of control
T/C [25]: 97 % of control
T/C [26]: 95 % of control

CCOC(=O)CCC(=O)C(=O)OCC
T/C [21]: 92 % of control
T/C [22]: 102 % of control
T/C [23]: 92 % of control

CN1C(=O)C2C3C=CC(C3)C2C1=O (stereo unspecified)
T/C [9]: 97 % of control
T/C [15]: 101 % of control
T/C [10]: 101 % of control
T/C [16]: 100 % of control
T/C [11]: 106 % of control
T/C [17]: 96 % of control

Cc1c2ccccc2cc2[n+]1CCc1ccccc1-2
T/C (endpoint: mean survival time, dose: 50.0 mg/kg/injection, schedule: Q04DX003 (ip), vehicle: saline with Tween-80): 100 % of control
T/C [7]: 98 % of control
T/C [18]: 105 % of control
T/C [8]: 96 % of control
T/C [19]: 107 % of control

Cc1ccc(CC(=O)N2CCOCC2)cc1
T/C [24]: 106 % of control
T/C [25]: 97 % of control
T/C [26]: 92 % of control

CSc1sc2ccccc2[n+]1C
T/C (endpoint: mean survival time, dose: 25.0 mg/kg/injection, schedule: Q01DX009 (ip), vehicle: saline): 102 % of control
T/C (endpoint: mean survival time, dose: 50.0 mg/kg/injection, schedule: Q01DX009 (ip), vehicle: saline): 96 % of control and 108 % of control
T/C (endpoint: mean survival time, dose: 100.0 mg/kg/injection, schedule: Q04DX003 (ip), vehicle: saline): 97 % of control
T/C (endpoint: mean survival time, dose: 200.0 mg/kg/injection, schedule: Q04DX003 (ip), vehicle: saline): 113 % of control
